Results as given in patent publication US11053239B2, “Compounds as BLC-2-selective apoptosis-inducing agents” (Fochon Pharmaceuticals, Ltd., priority 2017, dated 2021).

What follows are molecules tested on RS4; 11 cells (assay: Cell proliferation assay (MTS), RS4; 11 cells). Conditions: Homo sapiens, RS4-11, 72 h, RS4; 11 (ATCC CRL-1873) cell proliferation, 30000 cells/well, 72 h, MTS; mechanism-based readout of Bcl-2 inhibition; read-out: RS4; 11 IC50.
Type: cell-based
Excerpt: (§1) MTS testing kit was purchased from Promega. The RPMI-1640, Fetal bovine serum and Penicillin-Streptomycin were purchased from Gibco. Dimethyl sulfoxide (DMSO) was purchased from Sigma.
(§2) To investigate whether a compound is able to inhibit the activity of Bcl-2 in cells, a mechanism-based assay using DOHH2 (DSMZ No.® ACC 47) and RS4; 11 (ATCC® CRL-1873™) cell was developed. In this assay, inhibition of Bcl-2 was detected by the inhibition of DOHH2 and RS4; 11 cells proliferation. DOHH2 and RS4; 11 cells were cultured in culture flasks to 40-80% confluence in RPMI-1640 plus 10% fetal bovine serum. Cells were collected and plated onto 96-well plates at desired cell density (DOHH2: 5000 cells/well; RS4; 11: 30000 cells/well). Plates were incubated overnight at 37° C., with 5% CO2 to adhere. Compounds were added to the plates, and the final compound concentrations were 10000, 3333, 1111, […], 124, 41, 14, 4.6 and 1.5 nM. Plates plated with DOHH2 or RS4; 11 cells were placed at 37° C., with 5% CO2 for 120 h (DOHH2) or 72 h (RS4; 11) respectively. 20 μl MTS/100 μl medium mixture solution were added to each well and incubate the plates for exactly 2 hours. The reaction was stopped by adding 25 μl 10% SDS per well. Measure absorbance at 490 nm and 650 nm (reference wavelength). ICso was calculated using GraphPad Prism 5.0.
`CC1(C)CCC(CN2CCN(c3ccc(C(=O)NS(=O)(=O)c4ccc(NCCN5CCS(=O)(=NS(C)(=O)=O)CC5)c([N+](=O)[O-])c4)c(Oc4cnc5[nH]ccc5c4)c3)CC2)=C(c2ccc(Cl)cc2)C1` [Example 71, 2-((1H-pyrrolo[2,3-b]pyridin-5-yl)oxy)-4-(4-((4′-chloro-5,5-dimethyl-3,4,5,6-tetrahydro-[1,1′-biphenyl]-2-yl)methyl)piperazin-1-yl)-N-((4-((2-(1-((methylsulfonyl)imino)-1-oxido-1λ^6-thiomorpholino)ethyl)amino)-3-nitrophenyl)sulfonyl)benzamide] gave an IC50 of 258 nM. Work on `CCC(=O)N=S1(=O)CCN(CCNc2ccc(S(=O)(=O)NC(=O)c3ccc(N4CCN(CC5=C(c6ccc(Cl)cc6)CC(C)(C)CC5)CC4)cc3Oc3cnc4[nH]ccc4c3)cc2[N+](=O)[O-])CC1` [Example 67, 2-((1H-pyrrolo[2,3-b]pyridin-5-yl)oxy)-4-(4-((4′-chloro-5,5-dimethyl-3,4,5,6-tetrahydro-[1,1′-biphenyl]-2-yl)methyl)piperazin-1-yl)-N-((3-nitro-4-((2-(1-oxido-1-(propionylimino)-1λ^6-thiomorpholino)ethyl)amino)phenyl)sulfonyl)benzamide] yielded an IC50 of 32 nM. Molecule `CC1(C)CCC(CN2CCN(c3ccc(C(=O)NS(=O)(=O)c4ccc(NCC5CCS(=N)(=O)CC5)c([N+](=O)[O-])c4)c(Oc4cnc5[nH]ccc5c4)c3)CC2)=C(c2ccc(Cl)cc2)C1` (stereo not drawn) [Example 28, 2-((1H-pyrrolo[2,3-b]pyridin-5-yl)oxy)-4-(4-((4′-chloro-5,5-dimethyl-3,4,5,6-tetrahydro-[1,1′-biphenyl]-2-yl)methyl)piperazin-1-yl)-N-((4-(((1-imino-1-oxidohexahydro-1λ^6-thiopyran-4-yl)methyl)amino)-3-nitrophenyl)sulfonyl) benzamide] has an IC50 of 122 nM. With `CC(CNc1ccc(S(=O)(=O)NC(=O)c2ccc(N3CCN(CC4=C(c5ccc(Cl)cc5)CC(C)(C)CC4)CC3)cc2Oc2cnc3[nH]ccc3c2)cc1[N+](=O)[O-])N1CCP(C)(=O)CC1` (stereo not drawn) [Example 10, 2-((1H-pyrrolo[2,3-b]pyridin-5-yl)oxy)-4-(4-((4′-chloro-5,5-dimethyl-3,4,5,6-tetrahydro-[1,1′-biphenyl]-2-yl)methyl)piperazin-1-yl)-N-((4-((2-(4-methyl-4-oxido-1,4-azaphosphinan-1-yl)propyl)amino)-3-nitrophenyl)sulfonyl)benzamide] the IC50 was 133 nM. Work on `C[C@@H](CN1CCS(=O)(=NC#N)CC1)Nc1ccc(S(=O)(=O)NC(=O)c2ccc(N3CCN(CC4=C(c5ccc(Cl)cc5)CC(C)(C)CC4)CC3)cc2Oc2cnc3[nH]ccc3c2)cc1S(=O)(=O)C(F)(F)F` [Example 48, (S)-2-((1H-pyrrolo[2,3-b]pyridin-5-yl)oxy)-4-(4-((4′-chloro-5,5-dimethyl-3,4,5,6-tetrahydro-[1,1′-biphenyl]-2-yl)methyl)piperazin-1-yl)-N-((4-((1-(1-(cyanoimino)-1-oxido-1λ^6-thiomorpholino)propan-2-yl)amino)-3-((trifluoromethyl)sulfonyl)phenyl)sulfonyl)benzamide] yielded an IC50 of 173 nM. Work on `CC(Nc1ccc(S(=O)(=O)NC(=O)c2ccc(N3CCN(CC4=C(c5ccc(Cl)cc5)CC(C)(C)CC4)CC3)cc2Oc2cnc3[nH]ccc3c2)cc1[N+](=O)[O-])C1CCS(=O)(=NC#N)CC1` (stereo not drawn) [Example 32, 2-((1H-pyrrolo[2,3-b]pyridin-5-yl)oxy)-4-(4-((4′-chloro-5,5-dimethyl-3,4,5,6-tetrahydro-[1,1′-biphenyl]-2-yl)methyl)piperazin-1-yl)-N-((4-((1-(1-(cyanoimino)-1-oxidohexahydro-1λ^6-thiopyran-4-yl)ethyl)amino)-3-nitrophenyl)sulfonyl)benzamide] yielded an IC50 of 438 nM. For `CC1(C)CCC(CN2CCN(c3ccc(C(=O)NS(=O)(=O)c4ccc(NCC(N5CCP(C)(=O)CC5)C(F)(F)F)c([N+](=O)[O-])c4)c(Oc4cnc5[nH]ccc5c4)c3)CC2)=C(c2ccc(Cl)cc2)C1` (stereo not drawn) [Example 14, 2-((1H-pyrrolo[2,3-b]pyridin-5-yl)oxy)-4-(4-((4′-chloro-5,5-dimethyl-3,4,5,6-tetrahydro-[1,1′-biphenyl]-2-yl)methyl)piperazin-1-yl)-N-((3-nitro-4-((3,3,3-trifluoro-2-(4-methyl-4-oxido-1,4-azaphosphinan-1-yl)propyl)amino)phenyl)sulfonyl) benzamide], the IC50 was 520 nM. For `CC(Nc1ccc(S(=O)(=O)NC(=O)c2ccc(N3CCN(CC4=C(c5ccc(Cl)cc5)CC(C)(C)CC4)CC3)cc2Oc2cnc3[nH]ccc3c2)cc1[N+](=O)[O-])C1CCS(=O)(=NC2CC2)CC1` (stereo not drawn) [Example 62, 2-((1H-pyrrolo[2,3-b]pyridin-5-yl)oxy)-4-(4-((4′-chloro-5,5-dimethyl-3,4,5,6-tetrahydro-[1,1′-biphenyl]-2-yl)methyl)piperazin-1-yl)-N-((4-((1-(1-(cyclopropylimino)-1-oxidohexahydro-1λ^6-thiopyran-4-yl)ethyl)amino)-3-nitrophenyl)sulfonyl) benzamide], the IC50 was 160 nM. With `CC1(C)CCC(CN2CCN(c3ccc(C(=O)NS(=O)(=O)c4ccc(NCCN5CCS(=O)(=NC#N)CC5)c([N+](=O)[O-])c4)c(Oc4cnc5[nH]ccc5c4)c3)CC2)=C(c2ccc(Cl)cc2)C1` [Example 36, 2-((1H-pyrrolo[2,3-b]pyridin-5-yl)oxy)-4-(4-((4′-chloro-5,5-dimethyl-3,4,5,6-tetrahydro-[1,1′-biphenyl]-2-yl)methyl)piperazin-1-yl)-N-((4-((2-(1-(cyanoimino)-1-oxido-1λ^6-thiomorpholino)ethyl)amino)-3-nitrophenyl)sulfonyl) benzamide] the IC50 was 232 nM. For `CC1(C)CCC(CN2CCN(c3ccc(C(=O)NS(=O)(=O)c4ccc(NCCN5CCS(=N)(=O)CC5)c([N+](=O)[O-])c4)c(Oc4cnc5[nH]ccc5c4)c3)CC2)=C(c2ccc(Cl)cc2)C1` [Example 46, 2-((1H-pyrrolo[2,3-b]pyridin-5-yl)oxy)-4-(4-((4′-chloro-5,5-dimethyl-3,4,5,6-tetrahydro-[1,1′-biphenyl]-2-yl)methyl)piperazin-1-yl)-N-((4-((2-(1-imino-1-oxido-1λ^6-thiomorpholino)ethyl)amino)-3-nitrophenyl)sulfonyl) benzamide], the IC50 was 155 nM. Molecule `CC1(C)CCC(CN2CCN(c3ccc(C(=O)NS(=O)(=O)c4ccc(NCCN5CCS(=O)(=NC(=O)C6CC6)CC5)c([N+](=O)[O-])c4)c(Oc4cnc5[nH]ccc5c4)c3)CC2)=C(c2ccc(Cl)cc2)C1` [Example 69, 2-((1H-pyrrolo[2,3-b]pyridin-5-yl)oxy)-4-(4-((4′-chloro-5,5-dimethyl-3,4,5,6-tetrahydro-[1,1′-biphenyl]-2-yl)methyl)piperazin-1-yl)-N-((4-((2-(1-((cyclopropanecarbonyl)imino)-1-oxido-1λ^6-thiomorpholino)ethyl)amino)-3-nitrophenyl)sulfonyl) benzamide] has an IC50 of 165 nM. In the case of `CN=S1(=O)CCN(CCNc2ccc(S(=O)(=O)NC(=O)c3ccc(N4CCN(CC5=C(c6ccc(Cl)cc6)CC(C)(C)CC5)CC4)cc3Oc3cnc4[nH]ccc4c3)cc2[N+](=O)[O-])CC1` [Example 33, 2-((1H-pyrrolo[2,3-b]pyridin-5-yl)oxy)-4-(4-((4′-chloro-5,5-dimethyl-3,4,5,6-tetrahydro-[1,1′-biphenyl]-2-yl)methyl)piperazin-1-yl)-N-((4-((2-(1-(methylimino)-1-oxido-1λ^6-thiomorpholino)ethyl)amino)-3-nitrophenyl)sulfonyl) benzamide], the IC50 is reported as 101 nM. `CN=S1(=O)CCC(CNc2ccc(S(=O)(=O)NC(=O)c3ccc(N4CCN(CC5=C(c6ccc(Cl)cc6)CC(C)(C)CC5)CC4)cc3Oc3cnc4[nH]ccc4c3)cc2[N+](=O)[O-])CC1` (stereo not drawn) [Example 29, 2-((1H-pyrrolo[2,3-b]pyridin-5-yl)oxy)-4-(4-((4′-chloro-5,5-dimethyl-3,4,5,6-tetrahydro-[1,1′-biphenyl]-2-yl)methyl)piperazin-1-yl)-N-((4-(((1-(methylimino)-1-oxidohexahydro-1λ^6-thiopyran-4-yl)methyl)amino)-3-nitrophenyl)sulfonyl)benzamide] showed an IC50 of 323 nM. `CC(=O)N=S1(=O)CCC(CNc2ccc(S(=O)(=O)NC(=O)c3ccc(N4CCN(CC5=C(c6ccc(Cl)cc6)CC(C)(C)CC5)CC4)cc3Oc3cnc4[nH]ccc4c3)cc2[N+](=O)[O-])CC1` (stereo not drawn) [Example 31, 2-((1H-pyrrolo[2,3-b]pyridin-5-yl)oxy)-N-((4-(((1-(acetylimino)-1-oxidohexahydro-1λ^6-thiopyran-4-yl)methyl)amino)-3-nitrophenyl)sulfonyl)-4-(4-((4′-chloro-5,5-dimethyl-3,4,5,6-tetrahydro-[1,1′-biphenyl]-2-yl)methyl)piperazin-1-yl)benzamide] gave an IC50 of 135 nM.

The molecules below were run on DOHH2 cells (assay: Cell proliferation assay (MTS), DOHH2 cells). Conditions: Homo sapiens, DOHH-2, 120 h, DOHH2 (DSMZ ACC 47) cell proliferation, 5000 cells/well, 120 h, MTS; mechanism-based readout of Bcl-2 inhibition; read-out: DOHH2 IC50.
Type: cell-based
Excerpt: as §1, §2
`CCC(=O)N=S1(=O)CCN(CCNc2ccc(S(=O)(=O)NC(=O)c3ccc(N4CCN(CC5=C(c6ccc(Cl)cc6)CC(C)(C)CC5)CC4)cc3Oc3cnc4[nH]ccc4c3)cc2[N+](=O)[O-])CC1` [Example 67, 2-((1H-pyrrolo[2,3-b]pyridin-5-yl)oxy)-4-(4-((4′-chloro-5,5-dimethyl-3,4,5,6-tetrahydro-[1,1′-biphenyl]-2-yl)methyl)piperazin-1-yl)-N-((3-nitro-4-((2-(1-oxido-1-(propionylimino)-1λ^6-thiomorpholino)ethyl)amino)phenyl)sulfonyl)benzamide] gave an IC50 of 138 nM.
